# Data taken from ChEMBL document CHEMBL1143921, “Structure-based design and synthesis of benzimidazole derivatives as dipeptidyl peptidase IV inhibitors” (Bioorg Med Chem Lett, 2008).
# Key:
# [1] = AUC in rat at 8 mg/kg, po; format: ADME, organism-based; design: dose 8 mg/kg, route oral; details: plasma
# in vitro [2] = details: rat, liver microsomes
# in vitro [3] = details: human, liver microsomes
# [4] = Volume of distribution at steady state in rat at 0.8 mg/kg, iv or 8 mg/kg, po; format: ADME, organism-based; details: in vivo, read-out: Vdss
# [5] = Half life in rat at 0.8 mg/kg, iv; format: ADME, organism-based; design: dose 0.8 mg/kg, route intravenous; details: in vivo
# [6] = Half life in rat at 8 mg/kg, po; format: ADME, organism-based; design: dose 8 mg/kg, route oral; details: in vivo
# [7] = Bioavailability in rat at 8 mg/kg, po; format: ADME, organism-based; details: in vivo
# [8] = AUC in rat at 8.4 mg/kg, po; format: ADME, organism-based; design: dose 8.4 mg/kg, route oral; details: plasma
# [9] = Volume of distribution at steady state in rat at 0.7 mg/kg, iv or 8.4 mg/kg, po; format: ADME, organism-based; details: in vivo, read-out: Vdss
# [10] = Half life in rat at 0.7 mg/kg, iv; format: ADME, organism-based; design: dose 0.7 mg/kg, route intravenous; details: in vivo
# [11] = Bioavailability in rat at 8.4 mg/kg, po; format: ADME, organism-based; details: in vivo
# [12] = Half life in rat at 8.4 mg/kg, po; format: ADME, organism-based; design: dose 8.4 mg/kg, route oral; details: in vivo
# [13] = Volume of distribution at steady state in rat at 1.0 mg/kg, iv or 11.6 mg/kg, po; format: ADME, organism-based; details: in vivo, read-out: Vdss
# [14] = Half life in rat at 11.6 mg/kg, po; format: ADME, organism-based; design: dose 11.6 mg/kg, route oral; details: in vivo
# [15] = AUC in rat at 11.6 mg/kg, po; format: ADME, organism-based; design: dose 11.6 mg/kg, route oral; details: plasma
# [16] = Half life in rat at 1.0 mg/kg, iv; format: ADME, organism-based; design: dose 1 mg/kg, route intravenous; details: in vivo
# [17] = Bioavailability in rat at 11.6 mg/kg, po; format: ADME, organism-based; details: in vivo
SMILES,half-life (in vitro [2]) [h],half-life (in vitro [3]) [h],other results
Cn1cnc2ccc(-c3ccc(Cl)cc3Cl)c(CN)c21,0.767,> 3.33,AUC [1]: 11500 ng·h/mL; Vd [4]: 4.81 L/kg; half-life [5]: 7 h; half-life [6]: 4.4 h; bioavailability [7]: 100%
Cn1cnc2ccc(-c3ccccc3)c(CN)c21,0.767,1.55,–
Cn1cnc2ccc(-c3ccccc3CO)c(CN)c21,0.65,1.67,–
Cn1nnc2ccc(-c3ccccc3Cl)c(CN)c21,0.217,0.483,–
Cc1ccccc1-c1ccc2ncn(C)c2c1CN,0.467,3.05,–
CCn1cnc2ccc(-c3ccc(Cl)cc3Cl)c(CN)c21,0.7,> 3.33,–
Cc1nc2ccc(-c3ccccc3Cl)c(CN)c2n1C,0.117,> 3.33,–
Cn1cnc2cc(Br)c(-c3ccccc3Cl)c(CN)c21,0.4,2.93,–
Cn1c(=O)[nH]c2ccc(-c3ccccc3Cl)c(CN)c21,1.27,> 3.33,AUC [8]: 9000 ng·h/mL; Vd [9]: 1.14 L/kg; half-life [10]: 4.2 h; bioavailability [11]: 49%; half-life [12]: 4 h
Cn1c(-c2cccnc2)nc2ccc(-c3ccccc3Cl)c(CN)c21,0.433,1.6,–
COCc1nc2ccc(-c3ccccc3Cl)c(CN)c2n1C,0.183,> 3.33,–
CCc1nc2ccc(-c3ccccc3Cl)c(CN)c2n1C,0.0333,> 3.33,–
Cn1cnc2ccc(-c3ccccc3Cl)c(CN)c21,0.95,> 3.33,–
Cn1cnc2cc(C#N)c(-c3ccccc3Cl)c(CN)c21,0.633,> 3.33,Vd [13]: 1.07 L/kg; half-life [14]: 2.9 h; AUC [15]: 22100 ng·h/mL; half-life [16]: 3.8 h; bioavailability [17]: 122%
Cn1cnc2cc(C(N)=O)c(-c3ccccc3Cl)c(CN)c21,> 3.33,> 3.33,–
NCc1c(-c2ccccc2Cl)ccc2ncn(CCO)c12,0.533,> 3.33,–
NCc1c(-c2ccccc2Cl)ccc2ncn(Cc3ccccc3)c12,0.0667,0.133,–
NCc1c(-c2ccc(Cl)cc2Cl)ccc2nc[nH]c12,0.767,2.15,–
